Measurements taken from PubChem BioAssay AID248 (DTP/NCI, 2004).
“And” between values parts separate entries of the source, which are not always exact repeats. Equal values may be shown once. Toxic doses and inconclusive results are not listed. Rule as the data show it: active = T/C of 150% or more; inactive = T/C below 125%.

Tested on: L1210 leukemia ip in BDF1 mice, survival T/C
Experiment: NCI In Vivo Anticancer Drug Screen. Data for tumor model L1210 Leukemia (intraperitoneal) in B6D2F1 (BDF1) mice
Settings: higher = longer survival
How it was run: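 Mice bearing the transplanted tumor received compound or vehicle. Survival of the treated group was divided by that of the vehicle-treated control group to give the ratio.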

Measured: T/C

O=NN(CCCl)C(=O)NCCCl
inactive: endpoint: mean survival time, dose: 0.09 mg/kg/injection, schedule: Q01DX009 (ip), vehicle: saline 96 % of control | endpoint: mean survival time, dose: 0.09 mg/kg/injection, schedule: Q01DX009 (oral), vehicle: saline 100 % of control | endpoint: mean survival time, dose: 0.09 mg/kg/injection, schedule: Q## X024 (oral), vehicle: saline 102 % of control | endpoint: mean survival time, dose: 0.18 mg/kg/injection, schedule: Q01DX005 (ip), vehicle: saline 94 % of control | endpoint: mean survival time, dose: 0.18 mg/kg/injection, schedule: Q01DX009 (ip), vehicle: saline 101 % of control | endpoint: mean survival time, dose: 0.18 mg/kg/injection, schedule: Q01DX009 (oral), vehicle: saline 102 % of control | endpoint: mean survival time, dose: 0.18 mg/kg/injection, schedule: Q## X008 (ip), vehicle: saline 102 % of control | endpoint: mean survival time, dose: 0.18 mg/kg/injection, schedule: Q## X024 (oral), vehicle: saline 98 % of control | endpoint: mean survival time, dose: 0.32 mg/kg/injection, schedule: Q01DX001 (ip), vehicle: other 98 % of control | endpoint: mean survival time, dose: 0.36 mg/kg/injection, schedule: Q01DX Z (ip), vehicle: carboxymethylcellulose (CMC) 104 % of control | endpoint: mean survival time, dose: 0.37 mg/kg/injection, schedule: Q01DX001 (ip), vehicle: saline 104 % of control | endpoint: mean survival time, dose: 0.37 mg/kg/injection, schedule: Q01DX005 (ip), vehicle: saline 103 % of control | endpoint: mean survival time, dose: 0.37 mg/kg/injection, schedule: Q01DX005 (oral), vehicle: saline 93 % of control | endpoint: mean survival time, dose: 0.37 mg/kg/injection, schedule: Q01DX009 (ip), vehicle: saline 101 % of control | endpoint: mean survival time, dose: 0.37 mg/kg/injection, schedule: Q01DX009 (oral), vehicle: saline 97 % of control | endpoint: mean survival time, dose: 0.37 mg/kg/injection, schedule: Q01DX009 (sc), vehicle: saline 97 % of control | endpoint: mean survival time, dose: 0.37 mg/kg/injection, schedule: Q01DX015 (ip), vehicle: saline 115 % of control | endpoint: mean survival time, dose: 0.37 mg/kg/injection, schedule: Q## X003 (ip), vehicle: saline 107 % of control | endpoint: mean survival time, dose: 0.37 mg/kg/injection, schedule: Q## X008 (ip), vehicle: saline 109 % of control | endpoint: mean survival time, dose: 0.37 mg/kg/injection, schedule: Q## X024 (ip), vehicle: saline 110 % of control | endpoint: mean survival time, dose: 0.37 mg/kg/injection, schedule: Q## X024 (oral), vehicle: saline 100 % of control | endpoint: mean survival time, dose: 0.45 mg/kg/injection, schedule: Q01DX009 (ip), vehicle: saline + alcohol 99 % of control and 107 % of control | endpoint: mean survival time, dose: 0.63 mg/kg/injection, schedule: Q01DX001 (ip), vehicle: other 107 % of control | endpoint: mean survival time, dose: 0.73 mg/kg/injection, schedule: Q01DX Z (ip), vehicle: carboxymethylcellulose (CMC) 107 % of control | endpoint: mean survival time, dose: 0.75 mg/kg/injection, schedule: Q01DX001 (ip), vehicle: saline 105 % of control | endpoint: mean survival time, dose: 0.75 mg/kg/injection, schedule: Q01DX001 (sc), vehicle: saline 105 % of control | endpoint: mean survival time, dose: 0.75 mg/kg/injection, schedule: Q01DX005 (ip), vehicle: saline 108 % of control | endpoint: mean survival time, dose: 0.75 mg/kg/injection, schedule: Q01DX005 (oral), vehicle: saline 101 % of control | endpoint: mean survival time, dose: 0.75 mg/kg/injection, schedule: Q01DX009 (oral), vehicle: saline 116 % of control | endpoint: mean survival time, dose: 0.75 mg/kg/injection, schedule: Q01DX009 (sc), vehicle: saline 104 % of control | endpoint: mean survival time, dose: 0.75 mg/kg/injection, schedule: Q## X003 (ip), vehicle: saline 108 % of control | endpoint: mean survival time, dose: 0.75 mg/kg/injection, schedule: Q## X008 (ip), vehicle: saline 114 % of control | endpoint: mean survival time, dose: 0.75 mg/kg/injection, schedule: Q## X024 (oral), vehicle: saline 113 % of control | endpoint: mean survival time, dose: 1.0 mg/kg/injection, schedule: Q01DX Z (oral), vehicle: saline 117 % of control | endpoint: mean survival time, dose: 1.0 mg/kg/injection, schedule: Q04DX002 (ip), vehicle: saline + alcohol 105 % of control and 107 % of control | endpoint: mean survival time, dose: 1.0 mg/kg/injection, schedule: Q04DX004 (ip), vehicle: saline 106 % of control | endpoint: mean survival time, dose: 1.25 mg/kg/injection, schedule: Q01DX001 (ip), vehicle: other 101 % of control | endpoint: mean survival time, dose: 1.5 mg/kg/injection, schedule: Q01DX001 (ip), vehicle: saline 107 % of control | endpoint: mean survival time, dose: 1.5 mg/kg/injection, schedule: Q01DX001 (sc), vehicle: saline 107 % of control | endpoint: mean survival time, dose: 1.5 mg/kg/injection, schedule: Q01DX005 (oral), vehicle: saline 103 % of control | endpoint: mean survival time, dose: 1.5 mg/kg/injection, schedule: Q## X003 (ip), vehicle: saline 112 % of control | endpoint: mean survival time, dose: 1.75 mg/kg/injection, schedule: Q07DX Z (oral), vehicle: saline 105 % of control | endpoint: mean survival time, dose: 2.0 mg/kg/injection, schedule: Q01DX001 (ip), vehicle: Klucel (hydroxypropylcellulose) (HPC) 110 % of control | endpoint: mean survival time, dose: 2.0 mg/kg/injection, schedule: Q01DX001 (ip), vehicle: distilled water + alcohol 107 % of control | endpoint: mean survival time, dose: 2.0 mg/kg/injection, schedule: Q01DX001 (ip), vehicle: other 107 % of control and 111 % of control | endpoint: mean survival time, dose: 2.0 mg/kg/injection, schedule: Q01DX006 (iv), vehicle: saline 115 % of control | endpoint: mean survival time, dose: 2.0 mg/kg/injection, schedule: Q04DX002 (ip), vehicle: saline + alcohol 114 % of control | endpoint: mean survival time, dose: 2.0 mg/kg/injection, schedule: Q04DX004 (ip), vehicle: saline 118 % of control | endpoint: mean survival time, dose: 2.5 mg/kg/injection, schedule: Q01DX001 (ip), vehicle: other 114 % of control | endpoint: mean survival time, dose: 3.0 mg/kg/injection, schedule: Q01DX001 (ip), vehicle: saline 112 % of control | endpoint: mean survival time, dose: 3.0 mg/kg/injection, schedule: Q03DX Z (oral), vehicle: saline 117 % of control | endpoint: mean survival time, dose: 3.0 mg/kg/injection, schedule: Q## X003 (oral), vehicle: saline 112 % of control | endpoint: mean survival time, dose: 3.12 mg/kg/injection, schedule: Q01DX001 (ip), vehicle: saline 101 % of control and 106 % of control | endpoint: mean survival time, dose: 3.5 mg/kg/injection, schedule: Q07DX Z (oral), vehicle: saline 111 % of control | endpoint: mean survival time, dose: 5.0 mg/kg/injection, schedule: Q07DX003 (ip), vehicle: saline 104 % of control | endpoint: mean survival time, dose: 6.25 mg/kg/injection, schedule: Q01DX001 (ip), vehicle: saline 108 % of control and 110 % of control | endpoint: mean survival time, dose: 6.75 mg/kg/injection, schedule: Q03HX032 (ip), vehicle: saline + alcohol 103 % of control | endpoint: mean survival time, dose: 6.75 mg/kg/injection, schedule: Q## X032 (ip), vehicle: saline + alcohol 103 % of control | endpoint: mean survival time, dose: 12.0 mg/kg/injection, schedule: Q## X Z (ip), vehicle: saline 103 % of control | endpoint: mean survival time, dose: 12.5 mg/kg/injection, schedule: Q01DX001 (ip), vehicle: saline 118 % of control | endpoint: mean survival time, dose: 16.0 mg/kg/injection, schedule: Q01DX009 (ip), vehicle: carboxymethylcellulose (CMC) 102 % of control | endpoint: mean survival time, dose: 18.0 mg/kg/injection, schedule: Q## X006 (ip), vehicle: saline 116 % of control | endpoint: mean survival time, dose: 24.0 mg/kg/injection, schedule: Q01DX005 (ip), vehicle: saline 106 % of control | endpoint: mean survival time, dose: 24.0 mg/kg/injection, schedule: Q01DX005 (oral), vehicle: saline 119 % of control | endpoint: mean survival time, dose: 24.0 mg/kg/injection, schedule: Q01DX006 (ip), vehicle: saline 109 % of control | endpoint: mean survival time, dose: 24.0 mg/kg/injection, schedule: Q01DX009 (ip), vehicle: saline 117 % of control | endpoint: mean survival time, dose: 24.0 mg/kg/injection, schedule: Q01DX009 (oral), vehicle: saline 116 % of control | endpoint: mean survival time, dose: 24.0 mg/kg/injection, schedule: Q01DX009 (sc), vehicle: saline 117 % of control | endpoint: mean survival time, dose: 36.0 mg/kg/injection, schedule: Q01DX006 (ip), vehicle: saline 98 % of control | endpoint: mean survival time, dose: 40.0 mg/kg/injection, schedule: Q04DX004 (ip), vehicle: saline 94 % of control | endpoint: mean survival time, dose: 48.0 mg/kg/injection, schedule: Q01DX001 (ip), vehicle: Klucel (hydroxypropylcellulose) (HPC) 116 % of control | endpoint: mean survival time, dose: 48.0 mg/kg/injection, schedule: Q01DX006 (ip), vehicle: saline 94 % of control | endpoint: mean survival time, dose: 48.0 mg/kg/injection, schedule: Q## X024 (ip), vehicle: saline 119 % of control | endpoint: mean survival time, dose: 62.0 mg/kg/injection, schedule: Q04DX002 (ip), vehicle: saline + alcohol 107 % of control and 111 % of control | endpoint: mean survival time, dose: 64.0 mg/kg/injection, schedule: Q01DX Z (oral), vehicle: saline 94 % of control | endpoint: mean survival time, dose: 79.0 mg/kg/injection, schedule: Q01DX001 (oral), vehicle: saline 118 % of control | endpoint: mean survival time, dose: 88.0 mg/kg/injection, schedule: Q01DX001 (ip), vehicle: other 116 % of control | endpoint: mean survival time, dose: 96.0 mg/kg/injection, schedule: Q03DX Z (oral), vehicle: saline 108 % of control | endpoint: mean survival time, dose: 112.0 mg/kg/injection, schedule: Q07DX Z (oral), vehicle: saline 106 % of control | endpoint: mean survival time, dose: 128.0 mg/kg/injection, schedule: Q01DX001 (ip), vehicle: Klucel (hydroxypropylcellulose) (HPC) 106 % of control | endpoint: mean survival time, dose: 128.0 mg/kg/injection, schedule: Q01DX001 (ip), vehicle: other 98 % of control | endpoint: mean survival time, dose: 256.0 mg/kg/injection, schedule: Q01DX001 (ip), vehicle: Klucel (hydroxypropylcellulose) (HPC) 96 % of control | endpoint: mean survival time, dose: 256.0 mg/kg/injection, schedule: Q01DX001 (ip), vehicle: other 104 % of control | endpoint: median survival time, dose: 0.75 mg/kg/injection, schedule: Q01DX009 (ip), vehicle: saline 105 % of control | endpoint: median survival time, dose: 1.25 mg/kg/injection, schedule: Q01DX009 (ip), vehicle: saline 100 % of control and 112 % of control | endpoint: median survival time, dose: 24.0 mg/kg/injection, schedule: Q01DX009 (ip), vehicle: saline 95 % of control | endpoint: median survival time, dose: 30.0 mg/kg/injection, schedule: Q01DX005 (ip), vehicle: saline + alcohol 94 % of control and 102 % of control | endpoint: median survival time, dose: 30.0 mg/kg/injection, schedule: Q01DX009 (ip), vehicle: saline + alcohol 93 % of control
